Laboratory results as given in publication PMC7178883, “1,2,4-Triazole-based anticonvulsant agents with additional ROS scavenging activity are effective in a model of pharmacoresistant epilepsy” (Journal of Enzyme Inhibition and Medicinal Chemistry, 2020).
In brackets after ≈: the same amount, converted by molar mass. Like-named read-outs stand apart in the source and are kept apart here.

Assays:
[1] = DPPH assay; settings: methanol, 30 min, 517 nm
Experimental: Free radical scavenging activity of compounds TP-10, TP-315 and TP-427 was evaluated using DPPH assay. Briefly, 25 µl of 0.2 mM of methanolic solution of DPPH ([…]) was mixed with 175 µl of varying concentrations (0.002–4.5 mg/ml) of the studied compounds dissolved in methanol. Reaction mixtures in the 96-well plate were incubated in the dark at room temperature for 30 min. The absorbance was measured at 517 nm against blank (which consists of all reagents without the investigated compounds) using a microplate reader (Epoch, BioTek Instruments, Inc., Winooski, VT, USA). As a reference, the antioxidant activity of vitamin C was evaluated. Each concentration of the compounds was assayed at least six times. The results were expressed as the IC50 (µg/ml) ± SD calculated using the linear regression analysis.

[2] = CUPRAC assay; settings: pH 7.0, 450 nm
Experimental: Cupric reducing antioxidant capacity (CUPRAC) assay was performed according to the method by Apak et al.[20] with slight modifications. The CUPRAC reagent was prepared by mixing equal volume of CuCl2 (10 mM), neocuproine solution (7.5 mM), and acetate buffer (pH = 7.0). Subsequently, 50 µl of TP-10, TP-315, TP-427 (0.002–0.4 mg/ml) and 150 µl of CUPRAC reagent were pipetted into each well of 96-well plate (Nunc, Roskilde, Denmark). After pipetting, the plate was shaken for 5 min and then incubated for 25 min in the dark at room temperature. The absorbance of the solutions was read at 450 nm using a microplate reader (Epoch, BioTek Instruments, Inc., Winooski, VT, USA). At least six tests were performed for each concentration of the investigated compounds. The results were expressed as the IC50 (µg/ml) ± SD.

[3] = tested on: 6 Hz-induced psychomotor seizures; parameters: method as in Barton et al. 25; settings: pretreatment time 15 min, ref Barton et al. 25, cited from earlier work
[4] = parameters: method as in Barton et al. 25; settings: ref Barton et al. 25, cited from earlier work

## O=C1O[C@H]([C@@H](O)CO)C(O)=C1O [Ascorbic acid, reference compound]
[1]
  IC50 ± SD, DPPH: 7.82 ± 0.54 µg/mL (≈ 44.4 µM)
[2]
  IC50 ± SD, CUPRAC: 16.05 ± 0.48 µg/mL (≈ 91.1 µM)

## CCCC(CCC)C(=O)O [Valproate, valproic acid]
[3]; mouse 6 Hz test
  ED50: 130.6 mg/kg
[3]
  Protective index (TD50/ED50): 2.8
[4]; pretreatment time 15 min
  TD50: 363.3 mg/kg

## CC[C@@H](C(N)=O)N1CCCC1=O [Levetiracetam]
[4]; pretreatment time 60 min
  TD50: >500 mg/kg
